Laboratory results: PMC8218542, “Iodine-catalyzed electrophilic substitution of indoles: Synthesis of (un)symmetrical diindolylmethanes with a quaternary carbon center” (Beilstein Journal of Organic Chemistry, 2021)
“Also recorded” adds a separate entry of the source. Where two headings read alike, the source gives them in different places.

Experiments:
Human CB1 receptor [1] = molecular target: T1, Human CB1 receptor (Homo sapiens, UniProt P21554); assay: Radioligand binding assay vs [3H]CP55,940, membranes of CHO cells expressing human CB1; details: CHO cell membranes
Method: (§1) Radioligand b inding assays at CB1 and CB 2 receptors
(§2) Competition binding assays were performed using the CB receptor agonist radioligand [3H](−)- cis-3-[2-hydroxy-4-(1,1-dimethylheptyl)phenyl]-trans-4-(3-hydroxypropyl)-cyclohexanol as previously described [S1]. Briefly, membrane preparations of Chinese hamster ovary (CHO) cells stably expressing human CB1 or CB2 receptor were used (30 μg of protein/well for CB1 and 16 µg of protein/well for CB2-receptor preparations). All stock solutions of test compounds ([…]) were prepared in DMSO. After 2 h of incubation, a mixture containing 15 μL of the […]
(§3) mM MgCl2, 0.1% BSA, pH 7.4), 60 μL of membrane preparation (in 50 mM TRIS buffer) and 465 μL of assay buffer, were filtered through GF/C glass fiber filters (presoaked for 0.5 h in 0.3% aq. polyethyleneimine solution), using a Brandel 96-channel cell harvester (Brandel, Gaithersburg, MD). Radioactivity on the filters was then measured in a liquid scintillation counter (Topcount NXT, Packard/Perkin-Elmer) after 10 h of preincubation with 50 µl of scintillation cocktail (Multiscint 25, Perkin-Elmer). […]

Human CB2 receptor [2] = molecular target: T2, Human CB2 receptor (Homo sapiens, UniProt P34972); assay: Radioligand binding assay vs [3H]CP55,940, membranes of CHO cells expressing human CB2; parameters: expressed in transfected cells; membrane preparations; details: CHO cell membranes
Method: as §1, §2, §3

control HEK293 cells = assay: Trupath BRET2 assay in control HEK293 cells transfected with only Gαi1-Rluc8, ß3 and γ9-GFP2; assay type: cell-based; details: cells without CB receptor
Human CB2 receptor [3] = molecular target: T2, Human CB2 receptor; assay: Trupath BRET2 functional assay in HEK293 cells transfected with human CB2; assay type: cell-based; parameters: expressed in transfected cells; host or cells: HEK293 cells, transient transfection (Lipofectamine 2000); receptor in pcDNA3.1(+); Trupath plasmids Addgene kit #1000000163; details: for agonistic activity at human CB2: agonist mode, BRET2
Method: (§4) Functional assays at CB1 and CB2 receptors
(§5) Functional assays of the selected compounds were assessed using the Trupath BRET 2 assay system as recently described [S2]. The Trupath plasmids were a gift from Bryan Roth’s Laboratory (Addgene kit #1000000163). Briefly, HEK293 cells were seeded in a 6 well-plate at adensity of 700.000 cells/well and incubated for 4h. Plasmids containing Gαi1-Rluc8, ß3 and γ9-GFP2 and either human CB 1 or CB2 in pcDNA3.1(+) at a ratio of 1:1:1:1 were mixed with Lipofectamine 2000 and transfected according to the manufacturer’s protocol. The cells were further incubated overnight, then harvested and seeded at a density of 40.000 cells/well in 96 well-plates with full growth medium, and cultured for another 24h. On the day of the […]
(§6) culture medium was carefully discarded and replaced by 60 µL of HBSS-HEPES buffer, followed by the addition of 10 µL of 50 µM Coelenterazine 400a. For testing of agonistic activity, the test compounds were added to the wells in a volume of 30 µL and incubated for 5 min. For antagonist testing, compounds were added in a volume of 15 µL, incubated for 5 min, […]
(§7) incubated for another 5 min. Test compounds were dissolved in DMSO and the final DMSO concentration in the assays was 1%. Finally, the signal was measured using a Mitras LB400 according to previously published literature[S3]. Data were obtained from 3-4independent experiments performed in duplicate.

Human CB1 receptor [4] = molecular target: T1, Human CB1 receptor; assay: Trupath BRET2 functional assay in HEK293 cells transfected with human CB1; assay type: cell-based; parameters: expressed in transfected cells; host or cells: HEK293 cells, transient transfection (Lipofectamine 2000); receptor in pcDNA3.1(+); Trupath plasmids Addgene kit #1000000163; details: for agonistic activity at human CB1: agonist mode, BRET2; for IC50: read-out: IC50, blockade of CB1 receptor activation
Method: as §4, §5, §6, §7

Human CB1 receptor [5] = molecular target: T1, Human CB1 receptor; parameters: method as in PMID 7565624; details: previously reported; cited from earlier work
Human CB2 receptor [6] = molecular target: T2, Human CB2 receptor; parameters: expressed in transfected cells; membrane preparations; method as in PMID 7565624; details: previously reported; cited from earlier work
CB1 receptors = tested on: CB1 receptors; parameters: method as in PMID 19286662; details: previously shown; cited from earlier work

T2 sequence (P34972 whole entry): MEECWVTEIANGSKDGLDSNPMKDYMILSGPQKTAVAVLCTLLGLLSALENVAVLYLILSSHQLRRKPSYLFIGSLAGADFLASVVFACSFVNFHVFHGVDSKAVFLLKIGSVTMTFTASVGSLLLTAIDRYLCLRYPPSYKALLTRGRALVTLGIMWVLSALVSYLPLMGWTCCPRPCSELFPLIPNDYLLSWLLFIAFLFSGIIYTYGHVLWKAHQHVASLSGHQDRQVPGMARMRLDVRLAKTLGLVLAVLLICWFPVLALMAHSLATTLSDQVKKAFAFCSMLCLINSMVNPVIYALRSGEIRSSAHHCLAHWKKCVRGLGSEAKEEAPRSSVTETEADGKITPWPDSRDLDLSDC
T1 sequence (P21554 whole entry): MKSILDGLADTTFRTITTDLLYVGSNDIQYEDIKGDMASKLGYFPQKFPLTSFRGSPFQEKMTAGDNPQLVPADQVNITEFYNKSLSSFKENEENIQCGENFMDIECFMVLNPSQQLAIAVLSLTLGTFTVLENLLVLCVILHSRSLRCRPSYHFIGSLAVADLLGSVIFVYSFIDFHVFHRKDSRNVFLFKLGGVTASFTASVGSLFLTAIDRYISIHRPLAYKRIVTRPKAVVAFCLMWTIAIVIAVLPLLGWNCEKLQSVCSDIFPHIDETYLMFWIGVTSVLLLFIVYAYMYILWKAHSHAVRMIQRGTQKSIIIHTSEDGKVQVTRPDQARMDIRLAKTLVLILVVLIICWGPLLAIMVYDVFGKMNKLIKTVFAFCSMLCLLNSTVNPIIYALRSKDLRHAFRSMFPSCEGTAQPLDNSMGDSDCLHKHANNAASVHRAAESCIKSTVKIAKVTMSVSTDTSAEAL

Row | SMILES | Ki (Human CB1 receptor [1]) [µM] | Ki (Human CB2 receptor [2]) [µM] | other results
1 | COc1ccc2[nH]cc(C(c3ccccc3)(c3c[nH]c4ccccc34)C(F)(F)F)c2c1 (stereo not shown) [3a, 5-methoxy-3-(2,2,2-trifluoro-1-(1H-indol-3-yl)-1-phenylethyl)-1H-indole] | 4.23 ± 0.03 | 6.04 ± 0.11 | 
2 | COc1ccc2[nH]cc(C(c3ccccc3)(c3c[nH]c4ccccc34)C(F)(F)C(F)(F)F)c2c1 (stereo not shown) [3ad] | 1.82 ± 0.09 | 11.2 ± 0.5 | effect in non-transfected control cells (control HEK293 cells): did not show any effect; agonistic activity at human CB2 (Human CB2 receptor [3]): no agonistic activity; inverse agonistic activity (effect on basal activity) at CB1 (Human CB1 receptor [4]; BRET2, HEK293): less pronounced; also recorded: inverse agonistic activity; agonistic activity at human CB1 (Human CB1 receptor [4]): no agonistic activity; IC50 (Human CB1 receptor [4]): 5.22 ± 0.68 µM
3 | COc1ccc2[nH]cc(C(c3ccccc3)(c3c[nH]c4c(Br)cccc34)C(F)(F)F)c2c1 (stereo not shown) [3g] | 4.02 ± 0.22 | 4.62 ± 0.33 | 
4 | Fc1cc2[nH]cc(C(c3ccccc3)(c3c[nH]c4ccccc34)C(F)(F)F)c2cc1F (stereo not shown) [3n] | 2.04 ± 0.08 | 6.14 ± 0.13 | 
5 | c1ccc2c(Cc3c[nH]c4ccccc34)c[nH]c2c1 [I, diindolylmethane] |  |  | Ki (Human CB1 receptor [5]): 4.3 µM; Ki (Human CB2 receptor [6]): 1.1 µM; functional activity at CB1 receptors (CB1 receptors): weak inverse agonist

Second part, led by results:

Row | Ki (Human CB1 receptor [1]) [µM] | Ki (Human CB2 receptor [2]) [µM] | SMILES | other results
6 | 7.64 ± 0.8 | 4.75 ± 0.34 | COc1ccc2[nH]cc(C(c3ccccc3)(c3c[nH]c4cccc(OC)c34)C(F)(F)F)c2c1 (stereo not shown) [3b] | 
7 | 3.21 ± 0.25 | 4.47 ± 0.12 | COc1ccc2[nH]cc(C(c3ccccc3)(c3c[nH]c4cc(F)ccc34)C(F)(F)F)c2c1 (stereo not shown) [3e] | agonistic activity at human CB2 (Human CB2 receptor [3]): no agonistic activity; inhibition of CB2 receptor activation (Human CB2 receptor [3]; antagonist mode, CP55,940 at its EC80, compared with CB1): weaker; inverse agonistic activity (effect on basal activity) at CB1 (Human CB1 receptor [4]; BRET2, HEK293): reduced the basal activity; also recorded: inverse agonistic activity; agonistic activity at human CB1 (Human CB1 receptor [4]): no agonistic activity; IC50 (Human CB1 receptor [4]): 5.68 ± 0.54 µM; EC50 (Human CB1 receptor [4]; reduction of basal activity, BRET2, HEK293, read-out: EC50, inverse agonist at CB1 receptors): 0.786 ± 0.233 µM
8 | 4.78 ± 1.26 | 9.9 ± 1.45 | COc1ccc2[nH]cc(C(c3ccccc3)(c3c[nH]c4cc(F)c(F)cc34)C(F)(F)F)c2c1 (stereo not shown) [3h] | 
